These results are taken from PMC4772728 (Drug development and industrial pharmacy, 2013).

In brackets after ≈: the same amount, converted by molar mass. Several values for one entry are separate records, joined by “and”; a condition that tells them apart may be missing. Equal entries are not always repeated. Marks after values point to notes of the source that are not given here. Bounds are passed on as bounds.

Data set [1] is described as follows: Solubility determination. Format: physicochemical. Particulars: for solubility: thermodynamic from solid.
Data set [2] is described as follows: Stratum corneum/water partition coefficient determination. It is filed as physicochemical, human.
For data set [3] the following is noted: PBS pH 7.4 with 30% DMSO, 37 °C, pseudo first order.
The nature of data set [4]: Octanol/water partition coefficient determination. Format: physicochemical.
The conditions of data set [5]: cited from earlier work.
The conditions of data set [6]: pH 7.4.
For data set [7] the following is noted: fresh rat plasma, 37 °C.
Where [8] appears, read: stratum corneum / 5% propylene glycol in water, 24 hrs.

Broadly, the solubility is the concentration that dissolves in the medium under given conditions. One may read the logP as the decadic logarithm of the partition coefficient of the neutral form, usually between octanol and water.

In the case of `COC(=O)Cc1ccccc1Nc1c(Cl)cccc1Cl` [MD, Methanol Diclofenac Ester], in data set [1], the “Solubility in 5% PG water” value was found to be 1.9 µM (≈ 0.589 µg/mL), the “Solubility in Hexane” value worked out at 21000 µM (≈ 6510 µg/mL), the “Solubility in IPM” value turned out to be 43000 µM (≈ 13300 µg/mL) and the Solubility in water amounted to 1.9 µM (≈ 0.589 µg/mL). In data set [1] (pH 2.5), the “Decrease of solubility in water relative to unionized DA” value is listed as “more than 2 folds”. For the same compound, the “Partition coefficient (LogK SC/ 5% PG water)” value in data set [2] (setting [8]) is listed as 3.56. The “Hydrolysis in PBS (half life in hours)” value in data set [3] was 34.6 h. For the same compound, the “Partition coefficient (LogP octanol/water)” value in data set [4] is reported as 5.00.

Take `O=C(O)Cc1ccccc1Nc1c(Cl)cccc1Cl` [DA, Diclofenac Acid, reference compound]: the solubility in data set [1] (organic solvent or mixture, Solubility in IPM) was 12600 µM (≈ 3730 µg/mL); in data set [1] (pH 2.5, aqueous buffer, Solubility in water), 3.4 µM (≈ 1.01 µg/mL). For the same compound, in data set [2] (water substituted with 0.02 M phosphate buffer at pH 2.5, 24 hrs), the “Partition coefficient (LogK SC/ 5% PG water)” value is reported as 2.97^a. Also, the octanol/water partition coefficient in data set [5] (ref Drug Bank website) was 4.9. The same compound registered a logP at 24 h in data set [4] (octanol/0.02 M phosphate buffer pH 2.5, pH 2.5) of 4.57.

In the case of `O=C(c1ccccc1)c1ccc2n1CCC2C(=O)O` (stereo not drawn) [ketorolac], the LogPO/W entry in data set [5] is “around 1”.

With `O=C(Cc1ccccc1Nc1c(Cl)cccc1Cl)OCCCO` [PD, 1,3 Propylene Glycol Diclofenac Ester], in data set [1], the “Solubility in 5% PG water” value is 4.8 µM (≈ 1.7 µg/mL), the “Solubility in Hexane” value amounted to 2220 µM (≈ 786 µg/mL), the “Solubility in IPM” value was determined as 13600 µM (≈ 4820 µg/mL) and the Solubility in water stood at 3.3 µM (≈ 1.17 µg/mL). For the same compound, the “Aqueous solution flux (steady state, across HEM)” value in data set [6] is 0.84(0.25) nmol·cm^−2·hr^−1. Besides, in data set [2] (setting [8]), the “Partition coefficient (LogK SC/ 5% PG water)” value is on record as 2.58. Besides, in data set [7], the “Bioconversion in plasma (half life in min)” value is 2.4 min and 2.41 min. Also, in data set [3], the “Hydrolysis in PBS (half life in hours)” value amounted to 63.9 h. Further, the “Partition coefficient (LogP octanol/water)” value in data set [4] is listed as 4.08.

As for Glycerol Diclofenac Ester [GD], in data set [1], the “Solubility in 5% PG water” value came out at 662 µM, the “Solubility in Hexane” value amounted to 386 µM, the “Solubility in IPM” value is 69700 µM and the Solubility in water was determined as 551 µM. Besides, in data set [1] (pH 2.5), the “Increase of solubility in purified water relative to unionized DA” value was over 100 fold. Further, in data set [6], the “Aqueous solution flux (steady state, across HEM)” value is reported as 5.54(0.78) nmol·cm^−2·hr^−1. Besides, the “Partition coefficient (LogP octanol/water)” value in data set [4] is given as 3.30.
